# Results published in patent US11985974B2, “Antimicrobial ferulic acid derivatives and uses thereof” (WISCONSIN ALUMNI RESEARCH FOUNDATION, priority 2014, dated 2024).
# Columns and labels:
# Format in all cases: cell-based, Saccharomyces cerevisiae
# [1] = system: poacic acid-resistant mutant (SUR1); test: Poacic acid-resistant mutant (PAr) with SNP in SUR1
# Protocol: Agar containing 500 μg/mL poacic acid was inoculated with ˜1 million cells of yeast (control strain). After 1 wk, two colonies were found growing on the agar. Single-colony isolates were obtained and found to be resistant to poacic acid. For whole-genome sequencing, single-colony isolates of poacic acid-resistant mutant, the caspofungin-resistant mutant, and the control strain (WT) were grown in triplicate 200-μL cultures and pooled for genomic DNA extraction (Epicentre MasterPure Yeast Kit; MPY80200). The genomic DNA was prepared for Illumina whole-genome sequencing using the Illumina TruSeqKkit (FC-121-3001) and sequenced by 150-bp paired-end reads on the MiSeq platform.
# To determine mutations in the drug-resistant mutants, read quality analysis was performed using FastQC (www.bioinformatics.babraharm.ac.uk/projects/fastqc/). Short reads were examined for quality and trimmed at the 3′ end when average base quality in a 3-nt window fell below Q30. Short reads were mapped to the standard S. cerevisiae reference genome, strain S288c (obtained from the National Center for Biotechnology Information RefSeq repository), using Burrows-Wheeler Alignment (BWA version 0.6.2) (Li et al. 2009) using the default parameters, with the exception of the fraction of missing alignments threshold, which was set at 0.08 (−n in bwa aln). […]
# [2] = system: yeast deletion collection; test: Chemical genomic analysis of yeast deletion collection
# Protocol: Chemical genomic analysis of poacic acid was performed as described previously (Parsons et al. 2006, Fung et al. 2014). The tested yeast deletion collection had ˜4,000 strains using the genetic background described by Andrusiak (Andrusiak 2012). The optimal inhibitory concentration of poacic acid for chemical genomic profiling [70-80% growth vs. solvent control in yeast extract-peptone-galactose medium after 24 h of growth] was determined using an eight-point dose curve. A concentration of 88 μg/mL inhibited growth within this range; 200-μL cultures of the pooled deletion collection of S. cerevisiae were grown with 88 μg/mL poacic acid (n=3) or a DMSO control in triplicate for 48 h at 30° C. Genomic DNA was extracted using the Epicentre MasterPure Yeast DNA Purification Kit. Mutant-specific molecular barcodes were amplified with specially designed multiplex primers (Smith et al. 2009). The barcodes were sequenced using an Illumina MiSeq. Replicates of each condition, poacic acid (n=3) or DMSO (n=2), were sequenced. The barcode counts for each yeast deletion mutant in the presence of poacic acid were compared to the DMSO control conditions to determine sensitivity or resistance of individual strains (the chemical genetic interaction score) (Parsons et al. 2006). To determine a P value for each top sensitive and resistant mutant, we used the EdgeR package (Robinson et al. 2014, Robinson et al. 2010). A Bonferroni-corrected hypergeometric distribution test was used to search for significant enrichment of GO terms among the top 10 sensitive and resistant deletion mutants (Boyle et al. 2004). To understand the pathways that were most affected by poacic acid, we developed a protein complex/pathway score based on the summation of the z scores for each complex/pathway (Pathway z score). Correlation of the chemical genomic profile of poacic acid with the yeast genetic interaction network was performed as previously described (Costanzo et al. 2010).
# For each complex, the chemical genetic interaction score of the genes in the complex with the compound was summed. To determine significance, the expectations for such a sum for random sets of genes of equal size were calculated. The random sets of equal size were expected to have means equal to the background mean and SDs equal to the background SD/sqrt(n). With this information, a z score (number of SDs from the expected mean) for each complex or pathway can be computed: Pathway z-score=(Σ−μ)/(σ×sqrt(n)), where Σ=sum of the chemical genetic interaction scores of genes in the complex, μ=mean of the chemical genetic interaction scores of the compounds with all genes studies, σ=SD of chemical genetic interaction scores of the compounds with all genes in the study, and n=size of the complex. Multivariate Morphological Analysis
# yeast cells = test: Cell leakage assay (FungaLight, flow cytometry); conditions: 4 h
# Protocol: A FungaLight Cell Viability Assay (L34952; Invitrogen) using a Guava Flow Cytometer (Millipore) was used to determine if poacic acid caused membrane damage. The population of stained cells (damaged integrity) vs. nonstained cells can be determined by flow cytometry. Caspofungin (50 ng/mL) was included as a positive control. MMS and DMSO were included as a noncell wall-targeting control and a solvent control, respectively. To test the effects of the compounds on both active and arrested cells, log-phase cultures were washed with 1×PBS and resuspended to an OD0.5 in either YPD medium or YP (no carbon source) in the presence of the drugs (n=3) for 4 h at 30° C. The cells were then stained and immediately read by flow cytometry. One-way ANOVA and Tukey's test were used to calculate the difference between drug treatments among cells with arrested growth.
structure (smiles),measurement,setting,value
"COc1cc(/C=C/c2cc(/C=C/C(=O)O)cc(OC)c2O)ccc1O [poacic acid, (E)-4-Hydroxy-3-{2-[(E)-4-hydroxy-3-methoxystyryl]}-5-methoxycinnamic acid]",resistance compared with the control strain,[1]; PAr mutant with SNP in SUR1,increased resistance
same,colony formation on agar,"[1]; spontaneous chain-termination mutant in SUR1, agar with 500 μg poacic acid/mL",able to form colonies
same,growth vs. solvent control,"[2]; 88 μg/mL, yeast extract-peptone-galactose medium, 24 h",70-80%
same,Z Score,"[2]; ACK1 deletion mutant, sensitive",ACK1 −9.09 1.39E
same,Z Score,"[2]; ALG6 deletion mutant, sensitive",ALG6 −8.30 1.82E
same,Z Score,"[2]; BCK1 deletion mutant, sensitive",BCK1 −12.91 2.58E
same,Z Score,"[2]; CSG2 deletion mutant, resistant",CSG2 5.89 1.57E
same,Z Score,"[2]; CWH43 deletion mutant, sensitive",CWH43 −10.99 7.98E
same,Z Score,"[2]; DFG5 deletion mutant, resistant",DFG5 5.51 1.34E
same,Z Score,"[2]; DSF2 deletion mutant, resistant",DSF2 5.32 6.68E
same,Z Score,"[2]; EMC4 deletion mutant, sensitive",EMC4 −7.92 1.90E
same,Z Score,"[2]; ERG2 deletion mutant, sensitive",ERG2 −7.80 4.76E
same,Z Score,"[2]; FYV8 deletion mutant, sensitive",FYV8 −9.11 1.11E
same,Z Score,"[2]; LCL1 deletion mutant, resistant",LCL1 5.79 4.51E
same,Z Score,"[2]; NBP2 deletion mutant, resistant",NBP2 5.43 1.57E
same,Z Score,"[2]; NUP170 deletion mutant, resistant",NUP170 5.33 2.79E
same,Z Score,"[2]; PIB2 deletion mutant, resistant",PIB2 4.96 2.79E
same,Pathway z score,"[2]; PKC pathway (most sensitive pathway), 88 μg/mL",−7.85
same,Z Score,"[2]; RGD1 deletion mutant, sensitive",RGD1 −10.16 1.21E
same,Z Score,"[2]; ROM2 deletion mutant, sensitive",ROM2 −9.47 8.88E
same,Z Score,"[2]; RPL21B deletion mutant, resistant",RPL21B 4.81 1.11E
same,Z Score,"[2]; RTS1 deletion mutant, resistant",RTS1 5.39 6.26E
same,Z Score,"[2]; SNG1 deletion mutant, sensitive",SNG1 −7.91 8.96E
same,Z Score,"[2]; SUR1 deletion mutant, resistant",SUR1 5.21 5.34E
same,cell leakage (propidium iodide uptake),yeast cells; actively growing cells (YPD),caused rapid cell leakage
same,cell leakage (propidium iodide uptake),yeast cells; arrested cells without carbon source (YP),leakage was still significantly greater
